# From publication PMC9422153, “A novel antibiotic combination of linezolid and polymyxin B octapeptide PBOP against clinical Pseudomonas aeruginosa strains” (Annals of Clinical Microbiology and Antimicrobials, 2022)
# Read-outs that look alike come from different tables or passages of the source. Bridge positions count the residues as written; N and C are the ends. Square brackets hold non-standard residues; d marks the D form. Peptide text beside a SMILES is read from it. Dab = NCC[C@H](N)C(=O)O
# What was measured:
# P. aeruginosa PAB41 = assay: MIC, micro-dilution method; assay type: cell-based; settings: Pseudomonas aeruginosa
# Description: (§1) The MICs (minimal inhibitory concentrations) were determined for different P. aeruginosa strains using micro-dilution method, with a concentration of 1 × 10^5 CFU/mL on LB broth for 24 h, according to the published procedures. The experiment was carried out in three repeats.
# P. aeruginosa ATCC27853 = assay: MIC, micro-dilution method; assay type: cell-based; settings: Pseudomonas aeruginosa
# Description: as §1
# P. aeruginosa PA14 [1] = assay: MIC, micro-dilution method; assay type: cell-based; settings: Pseudomonas aeruginosa
# Description: as §1
# P. aeruginosa PA2 = assay: MIC, micro-dilution method; assay type: cell-based; settings: Pseudomonas aeruginosa
# Description: as §1
# P. aeruginosa PA14 [2] = assay type: cell-based, Pseudomonas aeruginosa
# Description: Synergistic effect of the 6 polymyxin B or polymyxin E derivatives in combination with 5 conventional antibacterial agents was detected using the checkerboard method as described on the previous study. Briefly, the serial concentrations of test compounds were prepared by a two-dimensional array. The tested dilutions were based on the MICs of the two different compounds. The fractional inhibitory concentration index (FIC) was applied to illuminate the checkerboard test based on formulas as follows: FIC Index = […] = MICA+B/MICA, and FICB = MICB+A/MICB. The value of MICA+B is indicated as the MIC value of Compound A with Compound B, and equally for MICB+A. […] The experiments were repeated in triplicate.
# [3] = tested on: C. elegans infected with PA14; assay: C. elegans infection model; assay type: in vivo, Caenorhabditis elegans; settings: PA14 infection on SK plate, linezolid 8 μg/mL, PBOP 16 μg/mL
# Description: To determine the protective effect of LP, all groups of C. elegans were infected with PA14 in slow killing (SK) agar plate and were treated with PBS, linezolid (8 μg/mL), PBOP (16 μg/mL) or LP. The mortality of the infected C. elegans was evaluated for 7 days. […] The bacterial loads inside the C. elegans were counted at 12 h or 24 h post-infection as previously described. Briefly, the infected nematodes were mixed with silicon carbide particles and vortexed at maximum speed for one minute. The resulting suspension was serially diluted and plated on a selective agar plate to determine the bacterial CFU. This experiment was performed in triplicate.
# PAB41 = assay: Time-kill assay, bacterial burdens in vitro; assay type: cell-based, Pseudomonas aeruginosa; settings: PAB41, 1 × 10^5 CFU in 96-well plates; 1 h, 6 h, 12 h, 24 h; LP compared to single-treated groups
# Description: (§2) To explore the antibacterial activity of LP combination in the P. aeruginosa in vitro, PA14 were cultured in 96-well plates and were treated with PBS, linezolid, PBOP or LP for 1 h, 6 h, 12 h, and 24 h.
# (§3) A1–A4 1 × 10^5 CFU of PA14 were seeded in 96-well plates and treated with PBS, linezolid, PBOP or combination of linezolid and PBOP (LP) for 1 h (A1), 6 h (A2), 12 h (A3), and 24 h (A4). The bacteria burdens on the LB agar plates were counted. B1–B4 1 × 10^5 CFU of PA2 were seeded in 96-well plates and treated with PBS, linezolid, PBOP or LP for 1 h (B1), 6 h (B2), 12 h (B3), and 24 h (B4). C1–C4 1 × 10^5 CFU of PAB41 were seeded in 96-well plates and treated with PBS, linezolid, PBOP or LP for 1 h (C1), 6 h (C2), 12 h (C3), and 24 h (C4). The bacteria burdens were determined as described above.
# PA2 = assay: Time-kill assay, bacterial burdens in vitro; assay type: cell-based, Pseudomonas aeruginosa; settings: PA2, 1 × 10^5 CFU in 96-well plates; 1 h, 6 h, 12 h, 24 h; LP compared to single-treated groups
# Description: as §2, §3
# [4] = tested on: all tested P. aeruginosa strains; assay type: cell-based, Pseudomonas aeruginosa; settings: 24 h
# Description: as §1
# [5] = P. aeruginosa PAB41 (carbapenem-resistant clinical strain), micro-dilution, 1 × 10^5 CFU/mL, LB broth, 24 h, three repeats, read-out: MIC
# [6] = P. aeruginosa ATCC27853, micro-dilution, 1 × 10^5 CFU/mL, LB broth, 24 h, three repeats, read-out: MIC
# [7] = P. aeruginosa PA14, micro-dilution, 1 × 10^5 CFU/mL, LB broth, 24 h, three repeats, read-out: MIC
# [8] = P. aeruginosa PA2 (multidrug-resistant clinical strain), micro-dilution, 1 × 10^5 CFU/mL, LB broth, 24 h, three repeats, read-out: MIC
Compound,MIC (P. aeruginosa PAB41; [5]),MIC (P. aeruginosa ATCC27853; [6]),MIC (P. aeruginosa PA14 [1]; [7]),MIC (P. aeruginosa PA2; [8]),other results
"CC1(C)S[C@@H]2[C@H](NC(=O)[C@H](N)c3ccccc3)C(=O)N2[C@H]1C(=O)O [Ampicillin, ampicillin]",8 µg/mL,4 µg/mL,–,–,–
"CN[C@H](CC(C)C)C(=O)N[C@H]1C(=O)N[C@@H](CC(N)=O)C(=O)N[C@H]2C(=O)N[C@H]3C(=O)N[C@H](C(=O)N[C@H](C(=O)O)c4cc(O)cc(O)c4-c4cc3ccc4O)[C@H](O)c3ccc(c(Cl)c3)Oc3cc2cc(c3O[C@@H]2O[C@H](CO)[C@@H](O)[C@H](O)[C@H]2O[C@H]2C[C@](C)(N)[C@H](O)[C@H](C)O2)Oc2ccc(cc2Cl)[C@H]1O [Vancomycin, vancomycin]",–,–,–,–,"MIC (P. aeruginosa PAB41; PAB41, 24 h): > 256 µg/mL; MIC (P. aeruginosa PA14 [1]; PA14, 24 h): > 256 µg/mL; MIC (P. aeruginosa PA2; PA2, 24 h): > 256 µg/mL; MIC (P. aeruginosa ATCC27853; ATCC27853, 24 h): > 256 µg/mL"
"CN(C)[C@@H]1C(O)=C(C(N)=O)C(=O)[C@@]2(O)C(O)=C3C(=O)c4c(O)ccc(Cl)c4[C@@](C)(O)[C@H]3C[C@@H]12 [Chlortetracycline, chlortetracycline]",8 µg/mL,4 µg/mL,4 µg/mL,4 µg/mL,–
"CC(C)C[C@@H]1NC(=O)[C@@H](Cc2ccccc2)NC(=O)[C@H](CCN)NC(=O)[C@@H](NC(=O)[C@@H](N)CCN)CCNC(=O)[C@H]([C@@H](C)O)NC(=O)[C@H](CCN)NC(=O)[C@H](CCN)NC1=O [PBOP, polymyxin B octapeptide] (H-[Dab][Dab][Dab][dF]L[Dab][Dab]T; lactam 2-C (inferred); N-terminus assumed)",–,–,–,–,FIC (lowest FIC Index) combined with Erythromycin (P. aeruginosa PA14 [2]): 0.156; FIC (lowest FIC Index) combined with Lincomycin (P. aeruginosa PA14 [2]): 0.094; FIC (lowest FIC Index) combined with Linezolid (P. aeruginosa PA14 [2]): 0.078; FIC (lowest FIC Index) combined with Nisin (P. aeruginosa PA14 [2]): 0.313; FIC (lowest FIC Index) combined with Vancomycin (P. aeruginosa PA14 [2]): 0.156; bacterial loads inside C. elegans ([3]; 12 h and 24 h post infection): a great number of bacteria were detected; survival of infected C. elegans ([3]; monitored 7 days): died at day 3; bacterial CFU / bactericidal activity (PAB41): no remarkably bactericidal activity; bacterial CFU / bactericidal activity (PA2): no remarkably bactericidal activity; MIC [4]: over 256 µg/mL
"CCC[C@@H]1C[C@@H](C(=O)N[C@@H]([C@H]2O[C@H](SC)[C@H](O)[C@@H](O)[C@H]2O)[C@@H](C)O)N(C)C1 [Lincomycin, lincomycin]",> 256 µg/mL,> 256 µg/mL,> 256 µg/mL,> 256 µg/mL,–
"CC1(C)S[C@@H]2[C@H](NC(=O)Cc3ccccc3)C(=O)N2[C@H]1C(=O)O [Penicillin G, penicillin G]",4 µg/mL,8 µg/mL,8 µg/mL,4 µg/mL,–
"CC[C@H]1OC(=O)[C@H](C)[C@@H](O[C@H]2C[C@@](C)(OC)[C@@H](O)[C@H](C)O2)[C@H](C)[C@@H](O[C@@H]2O[C@H](C)C[C@H](N(C)C)[C@H]2O)[C@](C)(O)C[C@@H](C)C(=O)[C@H](C)[C@@H](O)[C@]1(C)O [Erythromycin, erythromycin]",> 256 µg/mL,> 256 µg/mL,> 256 µg/mL,> 256 µg/mL,–
